Experimental data taken from patent EP4549436A1, “NOVEL INDENONE DERIVATIVES AND USES THEREOF” (Amyloid Solution Inc., priority 2022, dated 2024).

Assays:
[1] = system: Tau-RD3 (Tau repeat domain 3); test: Tau disaggregation test by thioflavin-T assay; assay type: biochemical; conditions: 35 µM Tau-RD3 aggregated 24 hours at 37 °C, then compound 0-500 µM for 48 hours; concentration disaggregating 50 % compared to the control
Description: (§1) Each compound was dissolved in DMSO to a concentration of 10 mM. Subsequently, the compound was diluted with 6 % DMSO (in DW) and used.
(§2) Specifically, amyloid-beta and tau solutions were prepared by dissolving Aβ1-42 or Tau-RD3 (Tau repeat domain 3) monomer in DMSO to a concentration of 10 mM. Thereafter, each solution was diluted with DW to a concentration of 100 µM and stored on ice. Meanwhile, thioflavin-T was dissolved in 50 mM glycine buffer (pH 8.5) to a concentration of 5 mM. Thereafter, the resulting solution was diluted with 50 mM glycine buffer (pH 8.5) to a concentration of 5 µM and stored in a dark room while light was blocked.
(§3) Each of the amyloid-beta and tau solutions prepared according to Experimental Example 1.1 was added to a 1.5 mL microcentrifuge tube to a concentration of 50 µM or 35 µM, and then a reaction was allowed to occur therebetween at 37 °C for 24 hours. Each of the 1.5 mL microcentrifuge tubes in which amyloid-beta aggregation and tau aggregation had been completed was treated with each compound at a concentrated of 500 µM to 0 µM through serial dilution, and then a further reaction was allowed to occur therebetween at 37 °C for 48 hours. 25 µL of the reaction solution in which the reaction had been completed was added to each well of a 96-well plate for fluorescence analysis, and 75µL of the previously prepared thioflavin-T solution was added to each well. After a reaction was allowed to occur at room temperature in the dark for 5 minutes, fluorescence values were measured at excitation 450 nm and emission 485 nm by using a multi-mode microplate reader.
(§4) The fluorescence value of a group (control) treated with amyloid-beta or tau alone, followed by aggregation for 72 hours was converted into a percentage value and expressed as 100, and amyloid-beta and tau aggregates, in which aggregation had been completed upon reaction for 24 hours, were treated with each compound at each concentration and a further reaction was allowed to occur therebetween for 48 hours, and then fluorescence values thereof were measured and converted into relative values. […]

[2] = system: Aβ1-42; test: Amyloid-beta (Aβ) disaggregation test by thioflavin-T assay; assay type: biochemical; conditions: 50 µM Aβ1-42 aggregated 24 hours at 37 °C, then compound 0-500 µM for 48 hours; concentration disaggregating 50 % compared to the control
Description: as §1, §2, §3, §4

| Substance | EC50 [1] [µM] | EC50 [2] [µM] |
| --- | --- | --- |
| 2-(4-methoxyphenyl)-3-(5-methylthiazol-4-yl)-6-(2-phenoxyethoxy)-1H-inden-1-one [Compound 21] | 173 | 5.2 |
| 6-(2-(4-methoxyphenoxy)ethoxy)-3-(5-methylthiazol-4-yl)-2-(4-(trifluoromethyl)phenyl)-1H-inden-1-one [Compound 32] | > 500 | 161 |
| 6-(3-phenylpropoxy)-3-(1H-pyrazol-3-yl)-2-(pyridin-3-yl)-1H-inden-1-one [Compound 7] | 133 | 194 |
